Experimental data published in article PMC6001375, “CLERK is a novel receptor kinase required for sensing of root-active CLE peptides in Arabidopsis” (Development (Cambridge, England), 2018).
Entries after “also recorded” stand apart in the source; their conditions may differ.

How the values were obtained:
Arabidopsis root growth = assay: Root growth response (CLE resistance/sensitivity) of wild type and mutant seedlings; assay type: in vivo, Arabidopsis thaliana; details: for Root growth response of clerk mutants: clerk mutants vs Col-0 (and bam3 for CLE45), n=13-25 (Fig. 2B), n=16-19 (Fig. 2A)
Source text: Arabidopsis thaliana Columbia-0 (Col-0) was used as the wild type for phenotypic analyses and is the background of all mutants investigated: ops-2 (SALK_139316); brx-2 ([Rodrigues et al., 2009]); bam3-2 (SALK_044433) ([DeYoung et al., 2006]); clerk-3 (SALK_066568); ops^E319K ([Rodriguez-Villalon et al., 2014]); makr5 ([Kang and Hardtke, 2016]); nik1 (SALK_017538C); nik2 (SALK_044363C); and sark (SALK_111290), clv2/rlp10-1 (GK-686A09) and crn-10 ([Hazak et al., 2017]). Seeds were surface sterilized, germinated and grown vertically under continuous light at 22°C on 0.5× Murashige and Skoog media supplemented with 1% agar and with or without 0.3% sucrose.
CLE peptides were obtained from a commercial supplier (Genscript), synthesized at >80% purity, diluted in water and used at final concentration as indicated. For root length measurements, plates were scanned at 600 dpi resolution and seedling root length was determined using the Simple Neurite Tracer plug-in ([Longair et al., 2011]) for Fiji software ([Schindelin et al., 2012]).
M2 mutagenized seeds ([Kalmbach et al., 2017]) were screened in tissue culture on media complemented with 10 nM CLE26 peptide. Seedlings with CLE26-resistant root growth were transferred to soil and the phenotype was confirmed in the M3 generation before backcrossing to Col-0 wild type. The causative mutation for CLE26 resistance was then determined by whole-genome sequencing of bulked segregants as described previously ([Kang and Hardtke, 2016]).

[1] = system: BAM3 ectodomain with CLERK/At5g63710 ectodomains; assay: Analytical size-exclusion chromatography, BAM3 + CLERK/At5g63710 ectodomains; assay type: binding, Arabidopsis thaliana; details: 50 µM peptide
Protocol: (§1) Isolation of recombinant proteins and analytical gel filtrations were carried out as described previously ([Hazak et al., 2017]) with small adjustments. The coding sequences for BAM1-ECD (amino acids 20-637), BAM3-ECD (30-651), PXY-ECD (30-647), NIK1-ECD (32-248), NIK2-ECD (33-248), NIK3-ECD (26-238), CLERK-ECD (28-236) and At5G63710-ECD (51-224) were amplified from Arabidopsis thaliana cDNA using PfuX7 polymerase. All ECD-coding sequences were then cloned into a modified pFAST-BAC1 vector (Geneva Biotech) by GIBSON cloning, resulting in the addition of the azurocidin signal peptide sequence to the 5′-end, and of a 2×-STREP-9×HIS tag to the 3′-end of the ECD sequences. These plasmids, after being confirmed by sequencing, were transformed into Escherichia coli DH10MultiBac (Geneva Biotech) followed by the extraction of the resulting bacmids. Transfection of the bacmids into Spodoptera frugiperda Sf9 cells with Profectin (AB Vector) was carried out to produce and amplify the respective virus. Recombinant secreted expression of the proteins was carried out by addition of virus to Trichoplusia ni Tnao38 cells to reach a viral multiplicity of 1 and incubation of the cells for 3 days. […] Concentrations of the pure proteins were assessed by measuring their absorbance at 280 nm (NanoDrop Lite; Thermo Scientific) and subsequent correction with their respective extinction coefficient. […]

[2] = system: BAM3 ectodomain with NIK1/2/3 ectodomains; assay: Analytical size-exclusion chromatography, BAM3 + NIK1/2/3 ectodomains; assay type: binding, Arabidopsis thaliana; details: Fig. S3D; 50 µM peptide; pH 5.0
Protocol: as §1

BAM3 ectodomain = details: ref Hazak et al., 2017; cited from earlier work
Source text: The CLE resistance of clerk mutants could be explained through indirect effects, for example on the expression of bona fide CLE receptors, as proposed for crn ([Hazak et al., 2017]). To evaluate this scenario, we focused our efforts on the only identified CLE receptor in the root protophloem so far, the CLE45 receptor BAM3 ([Hazak et al., 2017]; [Kang and Hardtke, 2016]). Introduction of a BAM3::BAM3-CITRINE transgene into clerk mutants did however not reveal any altered BAM3 expression or localization (Fig. S1D). To also test whether CLERK could serve as a co-receptor for BAM3 instead, we obt ...

Peptide-induced binding of CLERK and BAM3 ectodomains ([1]; gel filtration, 20 mM citrate (pH 5.0), 150 mM NaCl)	Sequence	Root growth, 10 confirmed CLE26-resistant mutants (Arabidopsis root growth; 100 nM CLE26, vs Col-0 wild type, ANOVA, P<0.001, n=8-21)	Sensitivity of clerk plants carrying CLERK::CLERK-GFP (Arabidopsis root growth; Fig. 1E)	Root growth response, clerk T-DNA insertion mutant (SALK_066568) (Arabidopsis root growth; Fig. 1E, n=28-47)	Response of brx crn double mutants (Arabidopsis root growth; Fig. S4)	Requirement of CLERK for sensing in the root (Arabidopsis root growth; clerk mutants)	Root growth response of clerk mutants (Arabidopsis root growth)	Response of clerk brx and clerk ops double mutants (Arabidopsis root growth; n=2-25)	Response of combinations of clerk with bam3, makr5 or ops^E319K (Arabidopsis root growth; n=2-25)	CLE sensitivity of clerk mutants with transgenic CLERK wild-type copy (Arabidopsis root growth; original and T-DNA clerk mutants, Fig. 1E, n=28-47)	Sensing with SARK or NIK1 expressed under the CLERK promoter (Arabidopsis root growth; several independent transgenic lines, n=21-43)	Elution of BAM3 ectodomain with CLERK/At5g63710 ectodomains ([1]; Fig. S3A, pH 5.0)	Elution of BAM3 ectodomain with NIK1/2/3 ectodomains [2]	Binding to BAM3 ectodomain (BAM3 ectodomain)
	RKVPRGPDPIHN [CLE26]	substantially resistant; also recorded: statistically significantly different when compared with Col-0 wild type	full sensitivity	strong CLE26 resistance	still CLE26 sensitive	CLERK is required for CLE26 sensing in the root	resistant	both clerk brx and clerk ops were CLE26 sensitive	additive CLE26 resistance	could be recovered	both SARK and NIK1 could replace the CLERK protein to sense CLE26			
did not observe CLE45-induced binding	RRVRRGSDPIHN [CLE45]						resistant					elute as monomers	elute as monomers	high-affinity
